Experimental data from US20170348381A1, “FORMULATION” (NovaBiotics Limited, priority 2016, published 2017).

Experiments:
Type in all cases: cell-based
E. dermatitidis = assay: Antimicrobial susceptibility testing (CLSI M27-A3/M38-A2, chequerboard), MIC100, Example 2; conditions: for MIC: Exophiala dermatitidis; for MIC100 of the antifungal in combination with Novamycin (+): in combination with MIC100 and sub-MIC100 concentrations of Novamycin
Protocol: (§1) Antimicrobial susceptibility testing was performed based on CLSI approved standards M27-A3 and M38-A2. The effects of antimicrobial combinations were evaluated using a chequerboard method (Burkhart et al., 2006) in CLSI conditions.
(§2) Table 1. The MIC100 of clinically used antifungals individually (−) and in combination (+) with Novamycin®.
(§3) (−)=MIC100 (μg/mL) of the antifungal alone (+)=MIC100 (μg/mL) of the antifungal in combination with Novamycin®—=Not analysed

C. albicans [1] = assay: as above; conditions: for MIC100 of the antifungal in combination with Novamycin (+): in combination with MIC100 and sub-MIC100 concentrations of Novamycin; for MIC: Candida albicans
Protocol: as §1, §2, §3

A. fumigatus [2] = assay: as above; conditions: for MIC100 of the antifungal in combination with Novamycin (+): in combination with MIC100 and sub-MIC100 concentrations of Novamycin; for MIC: Aspergillus fumigatus
Protocol: as §1, §2, §3

C. albicans [3] = assay: Neutral, additive or synergistic effect of combinations of novamycin plus other antifungal agents, Example 3; conditions: for Antifungal MIC100: antifungal alone; for MIC100 in Combination, AF: antifungal in combination with Novamycin; for Effect: combination of the antifungal with Novamycin
Protocol: as §1
(§4) The neutral, additive or synergistic effect of combinations of novamycin plus other antifungal agents was studied.

A. fumigatus [4] = assay: as above; conditions: for Antifungal MIC100: antifungal alone; for MIC100 in Combination, AF: antifungal in combination with Novamycin; for Effect: combination of the antifungal with Novamycin
Protocol: as §1, §4

SMILES	MIC (E. dermatitidis; antifungal alone) [µg/mL]	MIC100 of the antifungal in combination with Novamycin (+) (E. dermatitidis) [µg/mL]	MIC100 of the antifungal alone (−) (C. albicans [1]; antifungal alone) [µg/mL]	MIC100 of the antifungal in combination with Novamycin (+) (C. albicans [1]) [µg/mL]	MIC100 of the antifungal alone (−) (A. fumigatus [2]; antifungal alone) [µg/mL]	MIC100 of the antifungal in combination with Novamycin (+) (A. fumigatus [2]) [µg/mL]	MIC100 of the antifungal alone (−) (E. dermatitidis; antifungal alone) [µg/mL]	Antifungal MIC100 (C. albicans [3]) [µg/mL]	MIC100 in Combination, AF (C. albicans [3]) [µg/mL]	Effect (C. albicans [3])	Antifungal MIC100 (A. fumigatus [4]) [µg/mL]	MIC100 in Combination, AF (A. fumigatus [4]) [µg/mL]	Effect (A. fumigatus [4])	MIC (C. albicans [1]; antifungal alone) [µg/mL]	MIC (A. fumigatus [2]; antifungal alone) [µg/mL]
CCC(C)n1ncn(-c2ccc(N3CCN(c4ccc(OCC5COC(Cn6cncn6)(c6ccc(Cl)cc6Cl)O5)cc4)CC3)cc2)c1=O (stereo not drawn) [ITZ, itraconazole]	4	2													
C[C@@H]1[C@H](O)[C@@H](C)/C=C/C=C/C=C/C=C/C=C/C=C/C=C/[C@H](O[C@@H]2O[C@H](C)[C@@H](O)[C@H](N)[C@@H]2O)C[C@@H]2O[C@](O)(C[C@@H](O)C[C@@H](O)[C@H](O)CC[C@@H](O)C[C@@H](O)CC(=O)O[C@H]1C)C[C@H](O)[C@H]2C(=O)O [AmB, amphotericin B]		0.12	0.25	0.13	0.25	0.03	1	0.5	0.05	Additive	0.25	0.03	Additive		
CC[C@H](C)C[C@H](C)CCCCCCCCC(=O)N[C@H]1C[C@@H](O)[C@@H](NCCN)NC(=O)[C@@H]2[C@@H](O)CCN2C(=O)[C@H]([C@H](O)CCN)NC(=O)[C@H]([C@H](O)[C@@H](O)c2ccc(O)cc2)NC(=O)[C@@H]2C[C@@H](O)CN2C(=O)[C@H]([C@@H](C)O)NC1=O [CFN, caspofungin]	31.2	3.94		0.03		0.06		0.5	0.03	Additive	0.06	0.04	Additive	0.5	0.06
CC[C@@H]([C@H](C)O)n1ncn(-c2ccc(N3CCN(c4ccc(OC[C@@H]5CO[C@@](Cn6cncn6)(c6ccc(F)cc6F)C5)cc4)CC3)cc2)c1=O [PCZ, pozaconazole]				0.06		0.125		< 0.03	< 0.03	Neutral	0.25	0.125	Additive	0.13	0.25
C[C@@H](c1ncncc1F)[C@](O)(Cn1cncn1)c1ccc(F)cc1F [Voriconazole]											0.25	0.25	Neutral		
